Data published in publication PMC5505648 (Bioorganic & medicinal chemistry, 2017).

Tests used:
[1] = in vivo
Hairless (Hr) gene = assay: Brain expression of Hairless; type: in vivo; conditions: mice, brain Hr expression ED50
[2] = Oral bioavailability / serum pharmacokinetics study in mice; type: in vivo; conditions: C57Bl/6, mouse; for clearance: iv
Ester-to-amide = type: physicochemical; conditions: for Rearrangement of ester to amide in dosing vehicle: 50% DMSO in saline; for Rearrangement of ester to amide product: polar, protic solvents / aqueous HPLC conditions

## Cc1cc(OCC(=O)O[C@@H](C)CN)cc(C)c1Cc1ccc(O)c(C(C)C)c1 [Compound 3, (S)-1-aminopropan-2-yl 2-(4-(4-hydroxy-3-isopropylbenzyl)-3,5-dimethylphenoxy)acetate]
[1]; male, C57Bl/6, mouse
  Fold increase of sobetirome exposure (AUC) in brain vs equimolar sobetirome: ~ 2 fold
  Fold reduction of parent drug exposure in heart vs equimolar sobetirome: ~ 3 fold
  Fold reduction of parent drug exposure in kidney vs equimolar sobetirome: ~ 2 fold
  Fold reduction of parent drug exposure in liver vs equimolar sobetirome: ~ 2 fold
  Fold reduction of parent drug exposure in serum vs equimolar sobetirome: ~ 3.5 fold
[1]; mouse, ip
  Time of Cmax / Tmax in all tissues analyzed: 15 to 30 min
Hairless (Hr) gene
  Fold increase in potency compared to sobetirome: ~2 fold
[2]; in vivo
  Amount of sobetirome from cleavage of 3 in blood, oral vs intravenous dosing: 2.4 fold
  clearance: 28 mL/min/kg
Ester-to-amide; aqueous HPLC sample, approximately 30 minutes later
  Species in chromatogram on re-sampling the same solution: showed only the amide 3b
Ester-to-amide; aqueous HPLC sample/run conditions, within 5 minutes of running
  Fraction of ester converted to amide: approximately 25%

## Cc1cc(OCC(=O)OC2(C(F)(F)F)CNC2)cc(C)c1Cc1ccc(O)c(C(C)C)c1 [Compound 15]
Ester-to-amide
  Rearrangement of ester to amide in dosing vehicle: do not rearrange to amides
  Rearrangement of ester to amide product: did not display rearrangement to the amide product

## Cc1cc(OCC(=O)O)cc(C)c1Cc1ccc(O)c(C(C)C)c1 [Compound 1, Sobetirome, reference compound]
[2]; serum, 3.05 μmol/kg
  clearance: 8 mL/min/kg

## 2-(methylamino)ethyl 2-(4-(4-hydroxy-3-methylbenzyl)-3,5-dimethylphenoxy)acetate [Compound 13]
Ester-to-amide
  Rearrangement of ester to amide product: freely rearrange to their corresponding tertiary amides

## CNCC(C)OC(=O)COc1cc(C)c(Cc2ccc(O)c(C(C)C)c2)c(C)c1 (centres unmarked) [Compound 7, 1-(methylamino) propan-2-yl 2-(4-(4-hydroxy-3-isopropylbenzyl)-3,5-dimethylphenoxy) acetate]
Ester-to-amide
  Rearrangement of ester to amide product: freely rearrange to their corresponding tertiary amides

## Cc1cc(OCC(=O)OC(CN)C(C)C)cc(C)c1Cc1ccc(O)c(C(C)C)c1 (centres unmarked) [Compound 11, 1-amino-3-methylbutan-2-yl 2-(4-(4-hydroxy-3-isopropylbenzyl)-3,5-dimethylphenoxy)acetate]
Ester-to-amide
  Rearrangement of ester to amide in dosing vehicle: do not rearrange to amides
  Rearrangement of ester to amide product: did not display rearrangement to the amide product

## CNCC(OC(=O)COc1cc(C)c(Cc2ccc(O)c(C(C)C)c2)c(C)c1)C(C)C (centres unmarked) [Compound 12, 3-methyl-1-(methylamino)butan-2-yl 2-(4-(4-hydroxy-3-isopropylbenzyl)-3,5-dimethylphenoxy)acetate]
Ester-to-amide
  Rearrangement of ester to amide in dosing vehicle: do not rearrange to amides
  Rearrangement of ester to amide product: did not display rearrangement to the amide product
